In ChEMBL document CHEMBL1201862, “PubChem BioAssay data set” (2004):
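Each compound was tested at five concentrations against cells in 96-well plates for 48 hours. Abbreviation: GI50, concentration required for 50% inhibition of growth.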 Activity calls are given as the source filed them. Cut-off read from the data, not from the text of the source: active = GI50 up to about 1.1 µM and inactive = higher.

What was measured:
Assay in all cases: DTP human tumour cell line panel, 48 h
786-0 = system: 786-0
A498 = system: A498
A549 = system: A549
ACHN = system: ACHN
BT-549 = system: BT-549
CAKI-1 = system: CAKI-1
CCRF-CEM = system: CCRF-CEM
COLO 205 = system: COLO 205
DU-145 = system: DU-145
EKVX = system: EKVX
HCT-116 = system: HCT-116
HCT-15 = system: HCT-15
HL-60 = system: HL-60
HOP-62 = system: HOP-62
HT-29 = system: HT-29
Hs-578T = system: Hs-578T
IGROV-1 = system: IGROV-1
KM12 = system: KM12
LOX IMVI = system: LOX IMVI
M14 = system: M14
MCF7 = system: MCF7
MDA-MB-231 = system: MDA-MB-231
MDA-MB-435 = system: MDA-MB-435
MDA-N = system: MDA-N
Malme-3M = system: Malme-3M
NCI-H23 = system: NCI-H23
NCI-H460 = system: NCI-H460
NCI-H522 = system: NCI-H522
NCI/ADR-RES = system: NCI/ADR-RES
OVCAR-3 = system: OVCAR-3
OVCAR-4 = system: OVCAR-4
OVCAR-5 = system: OVCAR-5
OVCAR-8 = system: OVCAR-8
PC-3 = system: PC-3
RPMI-8226 = system: RPMI-8226
RXF 393 = system: RXF 393
SF-268 = system: SF-268
SF-295 = system: SF-295
SF-539 = system: SF-539
SK-MEL-28 = system: SK-MEL-28
SK-MEL-2 = system: SK-MEL-2
SK-MEL-5 = system: SK-MEL-5
SK-OV-3 = system: SK-OV-3
SN12C = system: SN12C
SNB-19 = system: SNB-19
SNB-75 = system: SNB-75
SR = system: SR
SW-620 = system: SW-620
T47D = system: T47D
TK-10 = system: TK-10
U-251 = system: U-251
UACC-257 = system: UACC-257
UACC-62 = system: UACC-62
UO-31 = system: UO-31
HCC 2998 = system: HCC 2998
HOP-92 = system: HOP-92
K562 = system: K562
MOLT-4 = system: MOLT-4
NCI-H226 = system: NCI-H226

SMILES: C/C(=N\Nc1nc2ccccc2s1)c1ccc2ccccc2n1
- GI50 (786-0): > 100 µM (inactive)
- GI50 (A498): > 100 µM (inactive)
- GI50 (A549): > 100 µM (inactive)
- GI50 (ACHN): > 100 µM (inactive)
- GI50 (BT-549): > 100 µM (inactive)
- GI50 (CAKI-1): 55.6 µM (inactive)
- GI50 (CCRF-CEM): 25.7 µM (inactive)
- GI50 (COLO 205): 75.7 µM (inactive)
- GI50 (DU-145): > 100 µM (inactive)
- GI50 (EKVX): 12.2 µM (inactive)
- GI50 (HCT-116): > 100 µM (inactive)
- GI50 (HCT-15): > 100 µM
- GI50 (HL-60): 23.2 µM (inactive)
- GI50 (HOP-62): > 100 µM (inactive)
- GI50 (HT-29): 85.9 µM (inactive)
- GI50 (Hs-578T): 84.1 µM (inactive)
- GI50 (IGROV-1): 0.402 µM (active)
- GI50 (KM12): 59.2 µM (inactive)
- GI50 (LOX IMVI): > 100 µM (inactive)
- GI50 (M14): 46.2 µM (inactive)
- GI50 (MCF7): 46.3 µM (inactive)
- GI50 (MDA-MB-231): 46 µM (inactive)
- GI50 (MDA-MB-435): > 100 µM (inactive)
- GI50 (MDA-N): > 100 µM (inactive)
- GI50 (Malme-3M): 58.6 µM (inactive)
- GI50 (NCI-H23): > 100 µM (inactive)
- GI50 (NCI-H460): > 100 µM (inactive)
- GI50 (NCI-H522): 32.3 µM (inactive)
- GI50 (NCI/ADR-RES): > 100 µM (inactive)
- GI50 (OVCAR-3): 34.8 µM (inactive)
- GI50 (OVCAR-4): 11.2 µM (inactive)
- GI50 (OVCAR-5): 91 µM (inactive)
- GI50 (OVCAR-8): > 100 µM (inactive)
- GI50 (PC-3): > 100 µM (inactive)
- GI50 (RPMI-8226): 18.5 µM (inactive)
- GI50 (RXF 393): 26.4 µM (inactive)
- GI50 (SF-268): 28.8 µM (inactive)
- GI50 (SF-295): > 100 µM (inactive)
- GI50 (SF-539): 58.7 µM (inactive)
- GI50 (SK-MEL-28): > 100 µM (inactive)
- GI50 (SK-MEL-2): 58.5 µM (inactive)
- GI50 (SK-MEL-5): 30.2 µM (inactive)
- GI50 (SK-OV-3): > 100 µM (inactive)
- GI50 (SN12C): > 100 µM (inactive)
- GI50 (SNB-19): > 100 µM (inactive)
- GI50 (SNB-75): 15.5 µM (inactive)
- GI50 (SR): 2 µM (inactive)
- GI50 (SW-620): > 100 µM (inactive)
- GI50 (T47D): 5.36 µM (inactive)
- GI50 (TK-10): 88.7 µM (inactive)
- GI50 (U-251): > 100 µM (inactive)
- GI50 (UACC-257): > 100 µM (inactive)
- GI50 (UACC-62): > 100 µM (inactive)
- GI50 (UO-31): 53.7 µM (inactive)

SMILES: COc1ncnc2c1cnn2Cc1cn(CCCCO)nn1
- GI50 (786-0): > 100 µM (inactive)
- GI50 (A498): > 100 µM (inactive)
- GI50 (A549): > 100 µM (inactive)
- GI50 (ACHN): > 100 µM (inactive)
- GI50 (BT-549): > 100 µM (inactive)
- GI50 (CAKI-1): > 100 µM (inactive)
- GI50 (CCRF-CEM): > 100 µM (inactive)
- GI50 (COLO 205): > 100 µM (inactive)
- GI50 (DU-145): > 100 µM (inactive)
- GI50 (EKVX): > 100 µM (inactive)
- GI50 (HCC 2998): > 100 µM (inactive)
- GI50 (HCT-116): > 100 µM (inactive)
- GI50 (HCT-15): > 100 µM
- GI50 (HOP-62): > 100 µM (inactive)
- GI50 (HOP-92): > 100 µM (inactive)
- GI50 (HT-29): > 100 µM (inactive)
- GI50 (Hs-578T): > 100 µM (inactive)
- GI50 (IGROV-1): > 100 µM (inactive)
- GI50 (K562): > 100 µM (inactive)
- GI50 (KM12): > 100 µM (inactive)
- GI50 (LOX IMVI): > 100 µM (inactive)
- GI50 (M14): > 100 µM (inactive)
- GI50 (MCF7): > 100 µM (inactive)
- GI50 (MDA-MB-231): > 100 µM (inactive)
- GI50 (MDA-MB-435): > 100 µM (inactive)
- GI50 (MDA-N): > 100 µM (inactive)
- GI50 (MOLT-4): > 100 µM (inactive)
- GI50 (Malme-3M): > 100 µM (inactive)
- GI50 (NCI-H226): > 100 µM (inactive)
- GI50 (NCI-H23): > 100 µM (inactive)
- GI50 (NCI-H460): > 100 µM (inactive)
- GI50 (NCI-H522): > 100 µM (inactive)
- GI50 (NCI/ADR-RES): > 100 µM (inactive)
- GI50 (OVCAR-3): > 100 µM (inactive)
- GI50 (OVCAR-4): > 100 µM (inactive)
- GI50 (OVCAR-5): > 100 µM (inactive)
- GI50 (OVCAR-8): > 100 µM (inactive)
- GI50 (PC-3): > 100 µM (inactive)
- GI50 (RPMI-8226): > 100 µM (inactive)
- GI50 (RXF 393): > 100 µM (inactive)
- GI50 (SF-268): > 100 µM (inactive)
- GI50 (SF-295): > 100 µM (inactive)
- GI50 (SF-539): > 100 µM (inactive)
- GI50 (SK-MEL-28): > 100 µM (inactive)
- GI50 (SK-MEL-2): > 100 µM (inactive)
- GI50 (SK-MEL-5): > 100 µM (inactive)
- GI50 (SK-OV-3): > 100 µM (inactive)
- GI50 (SN12C): > 100 µM (inactive)
- GI50 (SNB-19): > 100 µM (inactive)
- GI50 (SR): > 100 µM (inactive)
- GI50 (SW-620): > 100 µM (inactive)
- GI50 (T47D): > 100 µM (inactive)
- GI50 (TK-10): > 100 µM (inactive)
- GI50 (U-251): > 100 µM (inactive)
- GI50 (UACC-257): > 100 µM (inactive)
- GI50 (UACC-62): > 100 µM (inactive)
- GI50 (UO-31): > 100 µM (inactive)

SMILES: CS(=O)(=O)OC1CN2CCC1CC2 (configuration not stated)
- GI50 (786-0): > 100 µM (inactive)
- GI50 (A498): > 100 µM (inactive)
- GI50 (A549): > 100 µM (inactive)
- GI50 (ACHN): > 100 µM (inactive)
- GI50 (BT-549): > 100 µM (inactive)
- GI50 (CAKI-1): > 100 µM (inactive)
- GI50 (CCRF-CEM): > 100 µM (inactive)
- GI50 (COLO 205): > 100 µM (inactive)
- GI50 (DU-145): > 100 µM (inactive)
- GI50 (EKVX): > 100 µM (inactive)
- GI50 (HCT-116): > 100 µM (inactive)
- GI50 (HCT-15): > 100 µM
- GI50 (HL-60): > 100 µM (inactive)
- GI50 (HOP-62): > 100 µM (inactive)
- GI50 (HOP-92): > 100 µM (inactive)
- GI50 (HT-29): > 100 µM (inactive)
- GI50 (Hs-578T): > 100 µM (inactive)
- GI50 (IGROV-1): > 100 µM (inactive)
- GI50 (K562): > 100 µM (inactive)
- GI50 (KM12): > 100 µM (inactive)
- GI50 (LOX IMVI): > 100 µM (inactive)
- GI50 (M14): > 100 µM (inactive)
- GI50 (MCF7): > 100 µM (inactive)
- GI50 (MDA-MB-231): > 100 µM (inactive)
- GI50 (MDA-MB-435): > 100 µM (inactive)
- GI50 (MDA-N): > 100 µM (inactive)
- GI50 (MOLT-4): > 100 µM (inactive)
- GI50 (Malme-3M): > 100 µM (inactive)
- GI50 (NCI-H23): > 100 µM (inactive)
- GI50 (NCI-H460): > 100 µM (inactive)
- GI50 (NCI-H522): > 100 µM (inactive)
- GI50 (NCI/ADR-RES): > 100 µM (inactive)
- GI50 (OVCAR-3): > 100 µM (inactive)
- GI50 (OVCAR-4): > 100 µM (inactive)
- GI50 (OVCAR-5): > 100 µM (inactive)
- GI50 (OVCAR-8): > 100 µM (inactive)
- GI50 (PC-3): > 100 µM (inactive)
- GI50 (RPMI-8226): > 100 µM (inactive)
- GI50 (RXF 393): > 100 µM (inactive)
- GI50 (SF-268): > 100 µM (inactive)
- GI50 (SF-295): > 100 µM (inactive)
- GI50 (SK-MEL-28): > 100 µM (inactive)
- GI50 (SK-MEL-2): > 100 µM (inactive)
- GI50 (SK-MEL-5): > 100 µM (inactive)
- GI50 (SK-OV-3): > 100 µM (inactive)
- GI50 (SN12C): > 100 µM (inactive)
- GI50 (SNB-19): > 100 µM (inactive)
- GI50 (SNB-75): > 100 µM (inactive)
- GI50 (SR): > 100 µM (inactive)
- GI50 (SW-620): > 100 µM (inactive)
- GI50 (T47D): > 100 µM (inactive)
- GI50 (TK-10): > 100 µM (inactive)
- GI50 (U-251): > 100 µM (inactive)
- GI50 (UACC-257): > 100 µM (inactive)
- GI50 (UACC-62): > 100 µM (inactive)
- GI50 (UO-31): > 100 µM (inactive)
